From ChEMBL document CHEMBL1201862, “PubChem BioAssay data set” (2004) come the findings set out here.

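Grown in 96-well plates, cells were treated for 48 hours with each compound at five concentrations. Insufficient inhibition: endpoint recorded as highest concentration tested. Abbreviation: GI50, concentration required for 50% inhibition of growth.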 Activity calls are given as the source filed them. Cut-off read from the data, not from the text of the source: active = GI50 up to about 1.1 µM and inactive = higher. Residues, ends and D or L forms follow the SMILES beside them. *: point of attachment. Boc = CC(C)(C)OC(=O)*; OBn = c1ccc(CO*)cc1

Holding throughout (experiment): inhibition of tumour cell growth, NCI panel, 48 h
Assay [1] concerns MDA-MB-231.
Assay [2] has as its system HCT-116.
Assay [3] deals with SK-MEL-28.
Assay [4] relates to HT-29.
The subject of assay [5] is OVCAR-5.
Assay [6] concerns TK-10.
The test system of assay [7] is SNB-75.
Assay [8] concerns BT-549.
Assay [9] deals with SK-MEL-2.
Assay [10] has as its system UACC-257.
The subject of assay [11] is MCF7.
Assay [12] relates to UACC-62.
Assay [13] concerns IGROV-1.
Assay [14] relates to ACHN.
The test system of assay [15] is T47D.
Assay [16] deals with HOP-62.
Assay [17] concerns EKVX.
Assay [18] concerns NCI-H226.
The subject of assay [19] is M14.
Assay [20] deals with RPMI-8226.

Take `N#[N+]c1cc2c(cc1Br)-c1ccccc1C2`: the GI50 in [1] was > 100 µM (inactive); in [2] it was > 100 µM (inactive); in assay [3], > 100 µM (inactive); in assay [4] it was > 100 µM (inactive); in [5] it was > 100 µM (inactive); in assay [6], 47.1 µM (inactive). Also, the GI50 was > 100 µM (inactive) in assay [7]; 70 µM (inactive) in [8]; 83.9 µM (inactive) in assay [9]; 23.5 µM (inactive) in assay [10]; 45.5 µM (inactive) in assay [11]; 44.9 µM (inactive) in assay [12]. The GI50 in [13] is 38.8 µM (inactive); in assay [14], > 100 µM (inactive); in assay [15] it was > 100 µM (inactive); in assay [16], > 100 µM (inactive); in assay [17], 24.5 µM (inactive); in assay [18], 51.6 µM (inactive). In addition, the GI50 in assay [19] was > 100 µM (inactive).

As for `COc1ccc2c(C=O)c3n(c(=O)c2c1OC)CCc1cc2c(cc1-3)OCO2`, the GI50 in assay [1] is > 100 µM (inactive); in assay [2] it was 26.3 µM (inactive); in assay [3] it was > 100 µM (inactive); in assay [4], 17.6 µM (inactive); in [5] it was > 100 µM (inactive); in assay [6], 96.8 µM (inactive). For the same compound, the GI50 was 18.9 µM (inactive) in assay [7]; 18.9 µM (inactive) in assay [8]; 25.9 µM (inactive) in assay [9]; 32.2 µM (inactive) in assay [10]; 21.8 µM (inactive) in assay [11]; 21 µM (inactive) in assay [12]. Further, the GI50 is 56.6 µM (inactive) in assay [13]; 69.2 µM (inactive) in assay [14]; 10.8 µM (inactive) in assay [15]; > 100 µM (inactive) in assay [16]; 35.6 µM (inactive) in assay [17]; 3.68 µM (inactive) in assay [20]. The GI50 was > 100 µM (inactive) in assay [18] and 18.6 µM (inactive) in [19].

As to `CN(C(=O)c1cc2c(s1)sc1c(=O)n(C)c3ccccc3c12)c1ccccc1`, the GI50 in assay [1] is 24.8 µM (inactive); in assay [2] it was 4.93 µM (inactive); in [3], > 100 µM (inactive); in [4], 2.77 µM (inactive); in assay [5], 63.7 µM (inactive); in assay [6], 24.7 µM (inactive). Further, the GI50 is 4.33 µM (inactive) in assay [7]; > 100 µM (inactive) in [8]; 3.77 µM (inactive) in [9]; 29.4 µM (inactive) in assay [10]; 0.501 µM (active) in assay [11]; 6.03 µM (inactive) in [12]. The GI50 in assay [13] is 4.37 µM (inactive); in assay [14] it was 5.46 µM (inactive); in [15], 28.8 µM (inactive); in assay [17] it was 16.7 µM (inactive); in assay [18], 5.48 µM (inactive); in assay [19], 50.9 µM (inactive).

With `CCOC(=O)c1cc(=O)c2ccnc3c2n1CCS3`, the GI50 in assay [1], in assay [2], in assay [3], in [4], in [5] and in assay [6] was > 100 µM (inactive) each time. Further, the GI50 in [7] is 8.3 µM (inactive); in assay [8] it was 62.2 µM (inactive); in [9], > 100 µM (inactive); in assay [10], 51.6 µM (inactive); in assay [11] it was > 100 µM (inactive); in [12], > 100 µM (inactive). Also, the GI50 in [13] was 40.6 µM (inactive); in [14], > 100 µM (inactive); in [15] it was 17.6 µM (inactive); in [16], 48.5 µM (inactive); in assay [17] it was > 100 µM (inactive); in assay [18] it was > 100 µM (inactive). For the same compound, in [19], the GI50 is > 100 µM (inactive).

Regarding `O=C(Cn1c(C(=O)/C=C/c2cccs2)nc2ccccc21)c1ccc(Cl)cc1`, the GI50 in [1] was 16.8 µM (inactive); in assay [2], 16.6 µM (inactive); in assay [3], 30.5 µM (inactive); in assay [4], 19.7 µM (inactive); in [5] it was > 100 µM (inactive); in assay [6], 27 µM (inactive). The GI50 in assay [7] was 24.2 µM (inactive); in assay [8], 21 µM (inactive); in assay [9], 6 µM (inactive); in assay [10] it was 17.9 µM (inactive); in [11] it was 16.3 µM (inactive); in assay [12] it was 25.2 µM (inactive). The GI50 was 16.7 µM (inactive) in [13]; 26.6 µM (inactive) in assay [14]; 36.3 µM (inactive) in assay [15]; 25.9 µM (inactive) in assay [16]; 8.05 µM (inactive) in assay [20]; 53.8 µM (inactive) in assay [18]. Moreover, in assay [19], the GI50 is 18.6 µM (inactive).

For the compound `CC1=C(C#N)S(=O)(=O)c2c(oc(C)c2C)N1`, the GI50 in assay [1], in assay [2], in [3], in [4], in [5] and in [6] was > 100 µM (inactive) in each case. Also, the GI50 in assay [7], in [8], in [9], in assay [10], in assay [11] and in assay [12] was > 100 µM (inactive) throughout. The GI50 in [14], in assay [15], in [16], in [17], in assay [20] and in assay [18] was > 100 µM (inactive) throughout. Also, the GI50 in assay [19] was > 100 µM (inactive).

As to `CC(C)CC(NC(=O)OC(C)(C)C)C(=O)NC(CC(=O)OCc1ccccc1)C(=O)OCc1ccccc1` (stereo not drawn) (Boc-Leu-Asp(OBn)-OBn; configuration not given here), the GI50 in assay [1] is 39.4 µM (inactive); in assay [2] it was 30.7 µM (inactive); in [4], 37.5 µM (inactive); in [5] it was > 100 µM (inactive); in [6], 21.3 µM (inactive); in assay [7], 87.9 µM (inactive). The GI50 in assay [8] is 81.5 µM (inactive); in assay [9], 63 µM (inactive); in assay [10], 32.9 µM (inactive); in assay [11], 31.5 µM (inactive); in assay [12], 21.9 µM (inactive); in assay [13], > 10 µM (inactive). Also, the GI50 in assay [15] is > 100 µM (inactive); in assay [16], > 100 µM (inactive); in assay [17], > 100 µM (inactive); in assay [20], 27.8 µM (inactive); in assay [18], 57.9 µM (inactive); in [19] it was 19.2 µM (inactive).

For `CC1=Nc2sc3c(c2C2=NCCN12)CCCC3`, the GI50 was 33.3 µM (inactive) in [1]; 20.9 µM (inactive) in assay [2]; 28.6 µM (inactive) in assay [3]; 18.6 µM (inactive) in [4]; 30.7 µM (inactive) in [5]; 36.8 µM (inactive) in assay [6]. For the same compound, the GI50 in assay [7] was 37.2 µM (inactive); in [8] it was 19.1 µM (inactive); in assay [9], 35.8 µM (inactive); in assay [10], 20.2 µM (inactive); in assay [11] it was 23.7 µM (inactive); in assay [12] it was 15.3 µM (inactive). Moreover, the GI50 in [13] was 18.3 µM (inactive); in assay [14] it was 25.8 µM (inactive); in assay [15], 32.7 µM (inactive); in assay [16], 40.6 µM (inactive); in assay [17], 23.4 µM (inactive); in assay [20], 19.8 µM (inactive). For the same compound, the GI50 in assay [18] was 15.1 µM (inactive).

As to `CCOc1cc2c(cc1O)C(N)C[C@@H]1[C@@H]2CC[C@]2(C)[C@@H](O)CC[C@@H]12` (stereo partly specified), the GI50 in [1] was 83.9 µM (inactive); in [3] it was 42.8 µM (inactive); in assay [4] it was 42.7 µM (inactive); in [5] it was > 100 µM (inactive); in assay [6], 83 µM (inactive); in assay [7] it was 15 µM (inactive). Also, the GI50 is 40.9 µM (inactive) in [8]; 41.1 µM (inactive) in assay [9]; 38.6 µM (inactive) in [10]; 40.8 µM (inactive) in assay [11]; 52.6 µM (inactive) in assay [13]; 34.8 µM (inactive) in assay [14]. Also, the GI50 was 84.1 µM (inactive) in assay [15]; 46.7 µM (inactive) in [16]; 80.9 µM (inactive) in assay [17]; 92.7 µM (inactive) in [18]; 26.9 µM (inactive) in assay [19].

On to `Cc1ccc(S(=O)(=O)c2c(O)c3ccccc3n(C)c2=O)cc1`, for which the GI50 in [1], in assay [2], in [3], in assay [4], in [5] and in assay [7] was > 100 µM (inactive) throughout. Also, the GI50 in assay [8], in [9], in assay [10], in assay [11], in [12] and in assay [13] was > 100 µM (inactive) throughout. In addition, the GI50 in [15], in assay [16], in assay [17], in assay [20], in [18] and in assay [19] was > 100 µM (inactive) each time.
